Measured values: article PMC6337512 (Molecules, 2018)
In brackets after ≈: the same amount, converted by molar mass.

How the values were obtained:
[1] = solutions in culture media RPMI
[2] = Solubility of APIs and THEDES in PBS, excess added, 24 h stirring, UV spectroscopy; format: physicochemical; details: aqueous buffer, thermodynamic from solid; PBS (pH 7.4), 37 °C
Description: The solubility studies were made with the pure APIs and THEDES. For performing these assays were used a PBS solution, and was added an excess of API and THEDES to this solution, place at 37 °C, under stirring for 24 h, for simulate physiological conditions. The determination of the API solubility was made by UV spectroscopy in 1 mL quartz cuvettes, using a Lambda 35 UV/VIS spectrometer (PerkinElmer, Villepinte, France) and the PerkinElmer UV WinLab software (PerkinElmer, Villepinte, France). […] The calibration curve was made using the respective APIs as standard for quantification.

[3] = Permeability and diffusion in Franz diffusion cells through PES-U membrane

Row | Compound | pH [1] | solubility at 24 h [2] | Papp at 180 min [3]
1 | CC[C@@H](CO)NCCN[C@@H](CC)CO [Ethambutol, ethambutol] | 6.21 | 4640 ± 70 µg/mL (≈ 22.7 mM) | 819 ± 30.6 ×10⁻⁶ cm/s
2 | N=C(N)NCCC[C@H](N)C(=O)O [L-Arginine, L-arginine] | 10.43 |  | 
